Consider three compounds from PMC11002876, “KcsA-Kv1.x chimeras with complete ligand-binding sites provide improved predictivity for screening selective Kv1.x blockers” (The Journal of Biological Chemistry, 2024).

Molecules are shown by their SMILES. Like-named read-outs stand apart in the source and are kept apart here. Where a SMILES comes first, the peptide text is derived from it.

Assay [1] deals with T1, KcsA-Kv1.1 T+F chimera (Streptomyces lividans, UniProt P0A334, A54E/A57S/G53E/G56E/I60S/L59F/L81M/P55A/Q58H/R52A/R64D/T61S/Y62I).
T1 sequence (P0A334 1-160 R52A/G53E/A54E/P55A/G56E/A57S/Q58H/L59F/I60S/T61S/Y62I/R64D/L81M): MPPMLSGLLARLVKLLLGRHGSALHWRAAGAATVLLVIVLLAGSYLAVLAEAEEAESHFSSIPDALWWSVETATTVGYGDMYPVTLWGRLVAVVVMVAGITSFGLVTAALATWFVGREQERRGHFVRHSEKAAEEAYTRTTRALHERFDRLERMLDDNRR
The experiment in a line: Phage-binding competition assay, KcsA-Kv1.1 T+F. Also noted: species or system human Kv1.1 turret and filter in Streptomyces lividans KcsA. How it is done: (§1) Phage stock solutions were diluted to working concentration with phage resuspension buffer supplemented with 2 mM DDM. For protein immobilization, the following amounts were used in a final volume of 50 μl/well: wt KcsA, 0.1 μg; KcsA-Kv1.1 T-only, 0.005 μg; KcsA-Kv1.1 T+F, 0.02 μg; KcsA-Kv1.2 T-only, 0.01 μg; KcsA-Kv1.2 T+F, 0.1 μg; KcsA-Kv1.3 T-only, 0.01 μg; and KcsA-Kv1.3 T+F, 0.1 μg. Protein samples were diluted in 50 μl of storage buffer (20 mM Tris pH8.0, 300 mM KCl, 2 mM DDM) and were added to the designated wells of a Pierce Clear, 96-Well Nickel Coated Plate (15442, Thermo Fisher Scientific), then incubated for 1 h at room temperature on a horizontal shaker at 130 rpm. The plate was blocked for 1 h at room temperature with 180 μl/well TBS-BSA supplemented with 1 mM DDM. Following blocking, the wells were washed 4× with washing buffer (300 μl TBS-Tween, 0.1% v/v) using a Wellwash Versa microplate washer (Thermo Fisher Scientific); then 50 μl phage solution (in TBS-BSA-Tween, 0.1% v/v, 2 mM DDM) at determined phage concentration was added to the wells and incubated for 1 h at room temperature on a horizontal shaker. The plate was washed 4× with washing buffer, then 50 μl anti-M13 IgG HRP (MA5-36125, Invitrogen) diluted to 1:2500 in TBS-Tween (0.1% v/v) was added to the wells and incubated for 1 h at room temperature. The plate was washed again 4× with 300 μl/well washing buffer. Finally, 50 μl/well 1-Step Ultra TMB-ELISA solution (34028, Thermo Fisher Scientific) was added to the wells, and the developing signal was stopped with 50 μl 1M HCl after 5 to 10 min. The light absorbance signal was read at 450 nm with Byonoy absorbance 96 plate reader (Byonoy GmbH).
(§2) For protein immobilization, the following amounts were used in a final volume of 50 μl/well: KcsA-Kv1.1 T-only, 0.005 μg; KcsA-Kv1.1 T+F, 0.01 μg; KcsA-Kv1.2 T-only, 0.025 μg; KcsA-Kv1.2 T+F, 0.0125 μg; KcsA-Kv1.3 T-only, 0.01 μg; and KcsA-Kv1.3 T+F, 0.1 μg. Protein samples were diluted in storage buffer. Binding of given concentrations of relevant ligand-displaying phages quantified by light absorbance ([…]) were investigated in a similar manner as in phage ELISA-binding assay, while different concentrations of competing toxin test substances were applied simultaneously. The results were converted to percent inhibitions (percent displacement) of the indicator phage binding, and relative affinities of the tested toxins were assessed by plotting percent displacements against log concentrations and determining half maximal inhibitory concentrations (IC50) by sigmoidal curve fitting using “Sigmoidal dose-response (variable slope) with least squares method” algorithm in GraphPad Prism 8 using the following equation: Y=Bottom+Top−Bottom/1+10^(LogEC50−×)⋅HillSlope

Assay [2] deals with T2, KcsA-Kv1.1 T+F chimera (Streptomyces lividans, UniProt P0A334, R52A/G53E/A54E/P55A/G56E/A57S/Q58H/L59F/I60S/T61S/Y62I/R64D/L81M).
T2 sequence (P0A334 1-160 R52A/G53E/A54E/P55A/G56E/A57S/Q58H/L59F/I60S/T61S/Y62I/R64D/L81M): T1 sequence (P0A334 1-160 R52A/G53E/A54E/P55A/G56E/A57S/Q58H/L59F/I60S/T61S/Y62I/R64D/L81M)
The experiment in a line: Phage-binding competition assay, KcsA-Kv1.1 T+F. Details: species or system human Kv1.1 turret and filter in Streptomyces lividans KcsA. To be noted: for competition binding to KcsA-Kv1.1 T+F, in words: ShK-phage competition, native peptide, Fig. 8F (ligand-binding pattern); for Rank, T+F chimera (Kv1.1): rank by competition IC50 among ShK, KTX1, MTX. As for the experimental part:
as §1, §2

[3] abbreviates: displacement of ShK-phage, KcsA-Kv1.1 T+F 0.01 μg/well on nickel-coated plate, mean ± SD (n = 3), NQ = not quantifiable, read-out: IC50, T+F chimera (Kv1.1).

In general, IC50 refers to the concentration that gives 50% inhibition. In the case of `CC[C@H](C)[C@H](NC(=O)[C@H](CCC(=O)O)NC(=O)[C@@H](NC(=O)CN)C(C)C)C(=O)N[C@@H](CC(N)=O)C(=O)N[C@H](C(=O)N[C@@H](CCCCN)C(=O)N[C@H]1CSSC[C@@H]2NC(=O)[C@H](CCCCN)NC(=O)CNC(=O)[C@H](Cc3ccccc3)NC(=O)[C@H](CCCNC(=N)N)NC(=O)[C@H](CCSC)NC(=O)CNC(=O)[C@H](C)NC(=O)[C@H](CC(=O)O)NC(=O)[C@H](CCCCN)NC(=O)[C@@H]3CSSC[C@@H](C(=O)N[C@H](C(=O)N4CCC[C@H]4C(=O)N[C@@H](CCCCN)C(=O)O)[C@@H](C)O)NC(=O)[C@H](Cc4c[nH]cn4)NC(=O)[C@H](CSSC[C@H](NC(=O)[C@H](CCC(N)=O)NC(=O)[C@@H]4CCCN4C(=O)[C@H](CO)NC(=O)CNC(=O)[C@H](CO)NC1=O)C(=O)N[C@@H](CC(C)C)C(=O)N[C@@H](CCCCN)C(=O)N1CCC[C@H]1C(=O)N3)NC(=O)[C@H](CCCCN)NC(=O)[C@H](CCCNC(=N)N)NC(=O)[C@H](CC(N)=O)NC(=O)[C@H](CCSC)NC2=O)C(C)C` [KTX1, Kaliotoxin-1], the IC50 in assay [1] (setting [3]) is 1.49 nM. Besides, in assay [2], the “competition binding to KcsA-Kv1.1 T+F, in words” value (from here on “competition binding”) is given as “ShK > KTX1 > MTX” and the “Rank, T+F chimera (Kv1.1)” value is given as 2.
Consider `CC[C@H](C)[C@@H]1NC(=O)[C@@H]2CSSC[C@H](NC(=O)[C@H](CO)NC(=O)[C@@H](N)C(C)C)C(=O)N[C@@H]([C@@H](C)O)C(=O)NCC(=O)N[C@@H](CO)C(=O)N[C@@H](CCCCN)C(=O)N[C@@H](CC(=O)O)C(=O)N[C@@H](CSSC[C@@H](C(=O)N[C@@H](CCCCN)C(=O)N[C@H]3CSSC[C@@H](C(N)=O)NC(=O)CNC(=O)[C@H](Cc4ccc(O)cc4)NC3=O)NC(=O)[C@H](CO)NC(=O)[C@H](CCCCN)NC(=O)[C@H](CC(N)=O)NC1=O)C(=O)N[C@@H](Cc1ccc(O)cc1)C(=O)N[C@@H](C)C(=O)N1CCC[C@H]1C(=O)N[C@H]1CSSC[C@H](NC(=O)CNC(=O)[C@H]([C@@H](C)O)NC(=O)[C@H](CCC(N)=O)NC(=O)[C@H](CCCCN)NC(=O)[C@H](CCCNC(=N)N)NC1=O)C(=O)N1CCC[C@H]1C(=O)N[C@@H](CC(N)=O)C(=O)N[C@@H](C)C(=O)N[C@@H](CCCCN)C(=O)N2` [MTX, Maurotoxin] (HELM PEPTIDE1{V.S.C.T.G.S.K.D.C.Y.A.P.C.R.K.Q.T.G.C.P.N.A.K.C.I.N.K.S.C.K.C.Y.G.C.[am]}$PEPTIDE1,PEPTIDE1,3:R3-24:R3|PEPTIDE1,PEPTIDE1,9:R3-29:R3|PEPTIDE1,PEPTIDE1,13:R3-19:R3|PEPTIDE1,PEPTIDE1,31:R3-34:R3$$$V2.0; N-terminus and C-terminus assumed), for which the IC50 in assay [1] (setting [3]) was above 1000 nM. Moreover, in assay [2], the “competition binding” value was “ShK > KTX1 > MTX” and the “Rank, T+F chimera (Kv1.1)” value was determined as 3. For the same compound, in assay [2] (listed as MTX1), the “competition binding” value is “negligible binding”.
For the compound `CC[C@H](C)[C@@H]1NC(=O)[C@@H](NC(=O)[C@H](CO)NC(=O)[C@@H](N)CCCNC(=N)N)CSSC[C@@H](C(=O)O)NC(=O)[C@H]([C@@H](C)O)NC(=O)CNC(=O)[C@@H]2CSSC[C@@H]3NC(=O)[C@H](CCC(N)=O)NC(=O)[C@H](Cc4ccccc4)NC(=O)[C@H](C)NC(=O)[C@H]([C@@H](C)O)NC(=O)[C@H](CSSC[C@H](NC(=O)[C@H](Cc4ccccc4)NC(=O)[C@H](CO)NC(=O)[C@H](CC(C)C)NC(=O)[C@H](CCCNC(=N)N)NC(=O)[C@H](Cc4ccc(O)cc4)NC(=O)[C@H](CCCCN)NC(=O)[C@H](CCSC)NC(=O)[C@H](CO)NC(=O)[C@H](Cc4c[nH]cn4)NC(=O)[C@H](CCCCN)NC3=O)C(=O)N[C@@H](CCCNC(=N)N)C(=O)N[C@@H](CCCCN)C(=O)N[C@@H]([C@@H](C)O)C(=O)N2)NC(=O)[C@H](CCCNC(=N)N)NC(=O)[C@H](CO)NC(=O)[C@H](CCCCN)NC(=O)[C@@H]2CCCN2C(=O)[C@H]([C@@H](C)CC)NC(=O)[C@H]([C@@H](C)O)NC(=O)[C@H](CC(=O)O)NC1=O` [ShK, Stichodactyla toxin], in assay [1] (ShK-phage competition, T+F KcsA-Kv1.1, value given in figure, sigmoidal fit to means of three replicates, read-out: IC50 (Fig. 8F)), the IC50 turned out to be 0.271 nM. In assay [2], the “competition binding” value is given as “ShK > KTX1 > MTX” and the “Rank, T+F chimera (Kv1.1)” value was determined as 1.
